Patent US20230165252A1, “ACTIVE COMPOUND COMBINATIONS” (Bayer Aktiengesellschaft, priority 2020, published 2023)
Read-outs that look alike come from different tables or passages of the source.

Columns and labels:
Type in all cases: cell-based
[1] = tested on: Cercospora beticola; assay: in vitro-Test with Cercospora beticola (microtiter growth inhibition); conditions: Cercospora beticola, read-out: Efficacy %
Procedure, shortened: (§1)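 Photometric extinction at 620 nm, measured at setup and again 3-5 days later, gives growth inhibition; 0% efficacy equals untreated-control growth, 100% means no growth. Compounds were applied in methanol/emulsifier, solvent evaporated, then spore or mycelium suspension in potato dextrose broth added; incubation at 20° C., 85% RH.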

[2] = tested on: Diaporthe citri; assay: in vitro-Test with Diaporthe citri (microtiter growth inhibition); conditions: Diaporthe citri, read-out: Efficacy; for inhibition of growth at 0.02 ppm: 0.020 ppm
Procedure, shortened: as §1

[3] = tested on: Ustilago segetum var. avenae; assay: in vitro-Test with Ustilago segetum var. avenae (microtiter growth inhibition); conditions: single compound, read-out: Efficacy %
Procedure, shortened: as §1

[4] = tested on: Parastagonospora nodorum; assay: in vitro-Test with Parastagonospora nodorum (microtiter growth inhibition); conditions: Parastagonospora nodorum, compound alone, read-out: Efficacy %
Procedure, shortened: as §1

[5] = tested on: Alternaria alternate; assay: in vitro-Test with Alternaria alternate (microtiter growth inhibition); conditions: Alternaria, applied alone, read-out: Efficacy
Procedure, shortened: as §1

[6] = tested on: Colletotrichum lindemuthianum; assay: in vitro-Test with Colletotrichum lindemuthianum (microtiter growth inhibition); conditions: Colletotrichum lindemuthianum, read-out: Efficacy %
Experimental: The degree of efficacy expressed in % is denoted: 0% means an efficacy, which corresponds to that of the control, while an efficacy of 100% means that no disease is observed.
If the actual fungicidal activity exceeds the calculated value, then the activity of the combination is super-additive, i.e. a synergistic effect exists. In this case, the efficacy, which was actually observed, must be greater than the value for the expected efficacy (E), that was calculated from the abovementioned formula.
Example: In Vitro-Test with Fungal Microorganisms
Wells of 96-well microtiter plates are filled with 10 μl of a preparation of test compound or compound combination in methanol+emulsifier alkylaryl-polyglycol-ether. Thereafter, the solvent is evaporated in a hood. At the next step, 100 μl of liquid potato dextrose medium is given into each well, that has been amended with an appropriate concentration of spores or mycelium suspension of the test fungus.
With the aid of a photometer, the extinction in all wells is measured at the wavelength of 620 nm.
The microtiter plates are incubated at 20° C. and 85% relative humidity. The inhibition of growth is determined again photometrically 3-5 days after the application. Efficacy is calculated in relation to the untreated control, 0% efficacy means fungal growth as high as in untreated control while 100% efficacy means no fungal growth is measured.

[7] = tested on: Cordana musae; assay: in vitro-Test with Cordana musae (microtiter growth inhibition); conditions: Neocordana musae, single substance, read-out: Efficacy
Procedure, shortened: as §1

[8] = tested on: Fusarium culmorum; assay: in vitro-Test with Fusarium culmorum (microtiter growth inhibition); conditions: Fusarium culmorum, read-out: Efficacy
Procedure, shortened: as §1

Work on Cc1ccc(C(F)(F)CNC(=O)c2c(Oc3cccc(C4CC4)c3F)nnc(Cl)c2C)cc1C [Compound I-749, 6-chloro-3-(3-cyclopropyl-2-fluorophenoxy)-N-[2-(3,4-dimethylphenyl)-2,2-difluoroethyl]-5-methylpyridazine-4-carboxamide] yielded an inhibition of growth at 0.004 ppm ([1]; alone, 0.004 ppm) of 0%, an inhibition of growth at 0.02 ppm ([1]; alone, 0.020 ppm) of 0% and an inhibition of growth at 0.1 ppm ([1]; alone, 0.1 ppm) of 8%. The inhibition of growth at 0.5 ppm ([1]; alone, 0.5 ppm) was 22%, the inhibition of growth at 0.004 ppm ([1]; applied alone at 0.004 ppm) was 0% and the inhibition of growth at 0.02 ppm ([1]; applied alone at 0.020 ppm) was 0%. It also gave an inhibition of growth at 0.1 ppm ([1]; applied alone at 0.1 ppm) of 8%, an inhibition of growth at 0.5 ppm ([1]; applied alone at 0.5 ppm) of 22% and an inhibition of growth at 0.004 ppm [2] of 0%. The inhibition of growth at 0.02 ppm [2] was 0%, the inhibition of growth at 0.1 ppm [2] was 0% and the inhibition of growth at 0.5 ppm [2] was 100%. For the same compound, the inhibition of growth at 0.004 ppm ([2]; applied alone) was 0%, the inhibition of growth at 0.02 ppm ([2]; applied alone) was 0% and the inhibition of growth at 0.1 ppm ([2]; applied alone) was 0%. The inhibition of growth at 0.5 ppm ([2]; applied alone) was 100%, the inhibition of growth at 0.004 ppm ([3]; 0.004 ppm) was 1% and the inhibition of growth at 0.02 ppm ([3]; 0.020 ppm) was 0%. For the same compound, the inhibition of growth at 0.1 ppm ([3]; 0.1 ppm) was 0%, the inhibition of growth at 0.5 ppm ([3]; 0.5 ppm) was 0% and the inhibition of growth at 0.004 ppm ([4]; 0.004 ppm) was 0%. The inhibition of growth at 0.02 ppm ([4]; 0.020 ppm) was 0%, the inhibition of growth at 0.1 ppm ([4]; 0.1 ppm) was 92% and the inhibition of growth at 0.5 ppm ([4]; 0.5 ppm) was 100%. For the same compound, the inhibition of growth at 0.004 ppm ([5]; 0.004 ppm) was 0%, the inhibition of growth at 0.02 ppm ([5]; 0.020 ppm) was 14% and the inhibition of growth at 0.1 ppm ([5]; 0.1 ppm) was 24%. It also gave an inhibition of growth at 0.5 ppm ([5]; 0.5 ppm) of 100%, an inhibition of growth at 0.004 ppm ([6]; applied alone at 0.004 ppm) of 1% and an inhibition of growth at 0.02 ppm ([6]; applied alone at 0.020 ppm) of 19%. The inhibition of growth at 0.1 ppm ([6]; applied alone at 0.1 ppm) was 100%, the inhibition of growth at 0.5 ppm ([6]; applied alone at 0.5 ppm) was 100% and the inhibition of growth at 0.004 ppm ([7]; 0.004 ppm) was 0%. It also gave an inhibition of growth at 0.02 ppm ([7]; 0.020 ppm) of 64%, an inhibition of growth at 0.1 ppm ([7]; 0.1 ppm) of 100% and an inhibition of growth at 0.5 ppm ([7]; 0.5 ppm) of 100%. The inhibition of growth at 0.004 ppm ([8]; 0.004 ppm) was 0%, the inhibition of growth at 0.02 ppm ([8]; 0.020 ppm) was 10% and the inhibition of growth at 0.1 ppm ([8]; 0.1 ppm) was 11%. For the same compound, the inhibition of growth at 0.5 ppm ([8]; 0.5 ppm) was 18%.
